Assay results reported in patent US20260206761A1, “HETEROARYL-TRIAZOLE COMPOUNDS AS PESTICIDES” (Bayer Aktiengesellschaft, priority 2019, published 2026).

Key:
Assay type in all cases: in vivo
[1] = system: adult engorged female ticks (Rhipicephalus microplus); experiment: Rhipicephalus (Boophilus) microplus injection test; conditions: 168 h, egg deposition after 7 days, read-out: activity (efficacy: infertile eggs); for pest or weed control at 4 pg: application rate 4 pg/animal; for pest or weed control at 0.02 mg: application rate 20 μg/animal
Summary of the method: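 Compound in DMSO (10 mg per 0.5 mL, then diluted with DMSO to test concentration); 1 μL injected into the abdomen of each of five engorged females, then held in a climate chamber. Fertile egg deposition checked at 7 days; efficacy 100% = all eggs infertile, 0% = all fertile.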

[2] = system: adult cat fleas (Ctenocephalides felis); experiment: Ctenocephalides felis in-vitro contact test, adult cat flea; conditions: application rate 5 μg/cm^2 (=500 g/ha), after 48 hours, read-out: activity (efficacy: fleas dead or moribund)
Method: Ctenocephalides felis—In-Vitro Contact Tests Adult Cat Flea
9 mg compound is solved in 1 mL acetone and diluted with acetone to the desired concentration. 250 μL of the test solution is filled in 25 mL glass test tubes and homogeneously distributed on the inner walls by rotation and tilting on a shaking device (2 h at 30 rpm). With a compound concentration of 900 ppm, an inner surface of 44.7 cm^2 and a homogeneous distribution, a dose of […] is achieved.
After the solvent has evaporated, each test tube is filled with 5-10 adult cat fleas (Ctenocephalides felis), closed with a perforated lid and incubated in a lying position at room temperature and relative humidity. After 48 hours efficacy is determined. The fleas are patted on the ground of the tubes and are incubated on a heating plate at 45-50° C. for at most 5 minutes. Immotile or uncoordinated moving fleas, which are not able to escape the heat by climbing upwards, are marked as dead or moribund.
An efficacy of 100% means all fleas are dead or moribund; 0% means no fleas are dead or moribund.

[3] = system: adult unfed cat fleas (Ctenocephalides felis); experiment: Ctenocephalides felis oral test; conditions: 48 h, read-out: activity (mortality)
Summary of the method: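 About 20 adult unfed fleas fed through parafilm on cattle blood containing compound (DMSO stock diluted in blood), blood held at 37 °C and fleas at room temperature. Mortality (%) scored after 2 days.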

[4] = system: larvae of the banded cucumber beetle (Diabrotica balteata); experiment: Diabrotica balteata spray test; conditions: 168 h, after 7 days, read-out: activity (efficacy: seedlings grown); for pest or weed control at 100 g/ha: application rate 100 g/ha (=32 pg/well); for pest or weed control at 500 g/ha: application rate 500 g/ha (=160 pg/well)
Summary of the method: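 Read-out is % efficacy at day 7, 0% meaning no seedling growth and 100% growth equal to uninfested untreated controls. Test solutions (acetone/DMF concentrate diluted with water carrying 1000 ppm emulsifier) were sprayed onto 1-day-germinated wheat seeds, 5 per well, before infestation with 10-20 larvae.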

[5] = system: green peach aphid (Myzus persicae); experiment: Myzus persicae oral test; conditions: 120 h, application rate 4 ppm, after 5 days
Summary of the method: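 Five-day oral feeding assay measuring percent mortality of a mixed aphid population that draws compound-containing sugared IPL41 medium through sealing parafilm; the test preparation derives from 1 part compound per 100 parts acetone, diluted with water.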

[6] = system: larvae of the southern green stink bug (Nezara viridula); experiment: Nezara viridula spray test; conditions: 96 h, after 4 days; for mortality at 100 g/ha: application rate 100 g/ha; for mortality at 500 g/ha: application rate 500 g/ha
Summary of the method: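 Larva-infested barley (Hordeum vulgare) plants received a spray of test solution prepared from an acetone/DMF concentrate diluted in emulsifier-containing water (1000 ppm). Percent kill read 4 days later; 0% means no stink bugs dead.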

[7] = system: Rhipicephalus microplus larvae (strain Parkhurst, resistant against synthetic pyrethroids); experiment: Rhipicephalus (Boophilus) microplus in-vitro contact test, larval cattle tick; conditions: after 48 hours, read-out: activity (efficacy: larvae dead or moribund); for pest or weed control at 100 g/ha: application rate 1 pg/cm^2 (=100 g/ha); for pest or weed control at 500 g/ha: application rate 5 pg/cm^2 (=500 g/ha)
Summary of the method: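 Larvae (20-50 per tube) exposed to dry compound film on glass tube walls, 5 μg/cm^2 at 900 ppm, applied from acetone. After 48 h at 27° C./85% RH, tubes tapped and negative geotaxis scored; efficacy as percent dead or moribund larvae.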

[8] = system: adult brown dog ticks (Rhipicephalus sanguineus); experiment: Rhipicephalus sanguineus in-vitro contact test, adult brown dog ticks; conditions: after 48 hours, read-out: activity (efficacy: ticks dead or moribund); for pest or weed control at 100 g/ha: application rate 1 pg/cm^2 (=100 g/ha); for pest or weed control at 5 µg/cm2, 500 g/ha: application rate 5 μg/cm^2 (=500 g/ha)
Summary of the method: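 Efficacy is % of adult ticks dead or moribund 48 h after confinement at room temperature in tubes wall-coated from acetone (5 μg/cm² at 900 ppm). Scoring by heat challenge at 45-50 °C up to 5 min; immotile or uncoordinated ticks failing to climb count as affected.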

[9] = system: fall armyworm larvae (Spodoptera frugiperda); experiment: Spodoptera frugiperda spray test; conditions: 168 h, read-out: activity (mortality)
Summary of the method: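 Larvae of fall armyworm placed on dried maize leaf sections previously sprayed with emulsified compound (acetone/DMF solvent, water with 1000 ppm emulsifier). Percent of caterpillars killed recorded on day 7, 0–100% scale.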

[10] = system: green peach aphid (Myzus persicae); experiment: Myzus persicae spray test; conditions: 120 h, after 5 days; for mortality at 100 g/ha: application rate 100 g/ha; for mortality at 500 g/ha: application rate 500 g/ha
Method: Myzus persicae—Spray Test
Solvent: 78.0 parts by weight acetone • 1.5 parts by weight dimethylformamide
Emulsifier: alkylarylpolyglycol ether
To produce a suitable preparation of active compound, 1 part by weight of active compound is mixed with the stated amount of solvents and is diluted with water, containing an emulsifier concentration of 1000 ppm, to the desired concentration. Further test concentrations are prepared by dilution with emulsifier containing water.
Chinese cabbage (Brassica pekinensis) leaf disks infected with all instars of the green peach aphid (Myzus persicae), are sprayed with a preparation of the active ingredient of the desired concentration.
After 5 days mortality in % is determined. 100% means all aphids have been killed and 0% means none of the aphids have been killed.

[11] = system: Aedes aegypti strain MONHEIM; experiment: Aedes aegypti test (AEDSAE surface treatment & contact assay); conditions: 24 hours after contact, read-out: efficacy (mortality)
Summary of the method: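 Percent mortality was read 24 h after adult MONHEIM mosquitoes were held for 30 min on a tile treated with compound. Compound applied from acetone solution (2 mg/ml) containing 2000 ppm rapeseed oil methyl ester, after evaporation.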

SMILES | pest or weed control at 4 pg [1] | pest or weed control at 0.02 mg [1] | pest or weed control at 5 µg/cm2 [2] | mortality at 100 ppm [3] | pest or weed control at 100 g/ha [4] | pest or weed control at 500 g/ha [4] | mortality at 4 ppm [5] | mortality at 100 g/ha [6] | mortality at 500 g/ha [6] | pest or weed control at 100 g/ha [7] | pest or weed control at 500 g/ha [7] | pest or weed control at 100 g/ha [8] | pest or weed control at 5 µg/cm2, 500 g/ha [8] | mortality at 100 g/ha [9] | mortality at 100 g/ha [10] | mortality at 500 g/ha [10] | mortality at 4 mg/m2 ([11]; surface concentration 4 mg/m^2, exposure 30 minutes) | mortality at 20 mg/m2 ([11]; surface concentration 20 mg/m^2, exposure 30 minutes) | mortality at 500 g/ha [9]
CC(NC(=O)c1cc(Cl)cc(S(C)(=O)=O)c1)c1nc(C(F)F)nn1-c1ncccn1 (stereo not shown) [I-5] | 100% | 100% | 80% | 100% | 100% | 100% | 100% | 90% | 90% |  |  |  |  |  |  |  |  |  | 
CCS(=O)(=O)c1cc(Cl)cc(C(=O)N[C@@H](C)c2nc(C3CC3)nn2-c2ncc(Cl)cn2)c1 [I-24] | 100% | 100% | 80% | 90% |  |  | 100% | 100% |  | 100% | 100% | 100% | 80% | 100% |  |  |  |  | 
COc1nc([C@H](C)NC(=O)c2cc(Cl)cc(S(C)(=O)=O)c2)n(-c2ccc(Cl)cn2)n1 [I-45] | 100% |  | 100% |  | 100% |  | 100% |  |  | 90% | 90% |  |  | 100% | 90% |  |  |  | 
C[C@H](NC(=O)c1cc(Cl)cc(S(C)(=O)=O)c1)c1nc(C2CC2)nn1-c1ncc(Cl)cn1 [I-61] |  |  | 100% |  | 100% |  | 100% | 100% | 100% | 100% | 100% | 80% | 100% | 100% | 90% | 90% |  |  | 
C[C@H](NC(=O)c1cc(Cl)cc(C2(C#N)CC2)c1)c1ncnn1-c1cc(C#N)ccn1 [II-4] | 100% | 100% | 80% | 100% | 100% | 100% | 100% | 100% | 100% |  |  |  |  | 83% |  | 90% | 80 to 100% | 80 to 100% | 
Cc1nc([C@H](C)NC(=O)c2cc(Cl)cc(S(=O)(=O)C(F)(F)F)c2)n(-c2ccc(C#N)cn2)n1 [II-15, 3-chloro-N-{(1S)-1-[1-(5-cyanopyridin-2-yl)-3-methyl-1H-1,2,4-triazol-5-yl]ethyl}-5-[(trifluoromethyl)sulfonyl]benzamide] | 100% | 100% | 90% | 100% | 100% | 100% | 100% |  | 100% | 100% | 100% |  |  | 100% |  | 90% |  |  | 100%
C[C@H](NC(=O)c1cc(C#N)cc(S(C)(=O)=O)c1)c1ncnn1-c1ccccn1 [II-31] | 100% | 100% | 100% | 100% | 100% | 100% | 100% | 100% | 100% |  |  | 100% |  |  |  |  |  |  | 83%
C[C@H](NC(=O)c1cc(Cl)cc(S(C)(=O)=O)c1)c1ncnn1-c1ncc(I)cn1 [II-44] | 100% | 100% | 100% | 100% |  |  | 100% | 100% |  | 100% | 100% |  |  | 100% |  |  |  |  | 
Cc1nc([C@H](C)NC(=O)c2cc(C(F)F)cc(C3CC3)c2)n(-c2ccc(C#N)cn2)n1 [II-61] | 100% |  | 100% |  | 100% |  | 100% | 100% |  | 100% | 100% | 100% | 100% | 83% | 90% |  |  |  | 
